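Dose response: 5 concentrations. Exposure: 48 h. Format: 96-well plates. Endpoint: linear interpolation; highest concentration if not reached. The concentration for full growth arrest is given as TGI.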
Key:
Test in all cases: NCI-60 cell line screen, 48 h
OVCAR-4 ovarian = tested on: OVCAR-4 ovarian
IGROV1 ovarian = tested on: IGROV1 ovarian
MALME-3M melanoma = tested on: MALME-3M melanoma
UACC-62 melanoma = tested on: UACC-62 melanoma
SF-539 CNS = tested on: SF-539 CNS
SK-MEL-2 melanoma = tested on: SK-MEL-2 melanoma
RXF-631 renal = tested on: RXF-631 renal
OVCAR-5 ovarian = tested on: OVCAR-5 ovarian
DMS 273 small cell lung = tested on: DMS 273 small cell lung
M14 melanoma = tested on: M14 melanoma
UO-31 renal = tested on: UO-31 renal
HCT-15 colon = tested on: HCT-15 colon
SNB-75 CNS = tested on: SNB-75 CNS
KM20L2 colon = tested on: KM20L2 colon
K-562 leukemia = tested on: K-562 leukemia
ACHN renal = tested on: ACHN renal
COLO 205 colon = tested on: COLO 205 colon
HOP-62 NSCLC = tested on: HOP-62 NSCLC
OVCAR-3 ovarian = tested on: OVCAR-3 ovarian
CAKI-1 renal = tested on: CAKI-1 renal
CCRF-CEM leukemia = tested on: CCRF-CEM leukemia
NCI-H522 lung = tested on: NCI-H522 lung
MOLT-4 leukemia = tested on: MOLT-4 leukemia
786-0 renal = tested on: 786-0 renal
TK-10 renal = tested on: TK-10 renal
HT29 colon = tested on: HT29 colon
SN12C renal = tested on: SN12C renal
M19-MEL melanoma = tested on: M19-MEL melanoma
LXFL 529 NSCLC = tested on: LXFL 529 NSCLC
HOP-18 NSCLC = tested on: HOP-18 NSCLC
DLD-1 colon = tested on: DLD-1 colon
SK-MEL-28 melanoma = tested on: SK-MEL-28 melanoma
HCT-116 colon = tested on: HCT-116 colon
DMS 114 small cell lung = tested on: DMS 114 small cell lung
SR leukemia = tested on: SR leukemia
RXF 393 renal = tested on: RXF 393 renal
SW-620 colon = tested on: SW-620 colon
HOP-92 NSCLC = tested on: HOP-92 NSCLC
UACC-257 melanoma = tested on: UACC-257 melanoma
SNB-78 CNS = tested on: SNB-78 CNS
NCI-H460 lung = tested on: NCI-H460 lung
RPMI-8226 leukemia = tested on: RPMI-8226 leukemia
SF-295 CNS = tested on: SF-295 CNS
EKVX NSCLC = tested on: EKVX NSCLC
A498 renal = tested on: A498 renal
NCI-H23 lung = tested on: NCI-H23 lung
NCI-H226 lung = tested on: NCI-H226 lung
HL-60(TB) leukemia = tested on: HL-60(TB) leukemia
SK-MEL-5 melanoma = tested on: SK-MEL-5 melanoma
KM12 colon = tested on: KM12 colon
U251 CNS = tested on: U251 CNS
A549 NSCLC = tested on: A549 NSCLC
SNB-19 CNS = tested on: SNB-19 CNS
HCC-2998 colon = tested on: HCC-2998 colon
SK-OV-3 ovarian = tested on: SK-OV-3 ovarian
SF-268 CNS = tested on: SF-268 CNS
LOX IMVI melanoma = tested on: LOX IMVI melanoma
OVCAR-8 ovarian = tested on: OVCAR-8 ovarian

## O=C1[C@@H]2C(c3cccc([N+](=O)[O-])c3)=NO[C@@H]2C(=O)N1c1ccc(Cc2ccc(N3C(=O)[C@H]4C(c5cccc([N+](=O)[O-])c5)=NO[C@H]4C3=O)cc2)cc1
OVCAR-4 ovarian
  TGI: > 100 µM
IGROV1 ovarian
  TGI: > 100 µM
MALME-3M melanoma
  TGI: > 100 µM
UACC-62 melanoma
  TGI: > 100 µM
SF-539 CNS
  TGI: > 100 µM
SK-MEL-2 melanoma
  TGI: > 100 µM
RXF-631 renal
  TGI: > 100 µM
OVCAR-5 ovarian
  TGI: > 100 µM
DMS 273 small cell lung
  TGI: > 100 µM
M14 melanoma
  TGI: > 100 µM
UO-31 renal
  TGI: > 100 µM
HCT-15 colon
  TGI: > 100 µM
SNB-75 CNS
  TGI: > 100 µM
KM20L2 colon
  TGI: > 100 µM
K-562 leukemia
  TGI: > 100 µM
ACHN renal
  TGI: > 100 µM
COLO 205 colon
  TGI: > 100 µM
HOP-62 NSCLC
  TGI: > 100 µM
OVCAR-3 ovarian
  TGI: > 100 µM
CAKI-1 renal
  TGI: > 100 µM
CCRF-CEM leukemia
  TGI: > 100 µM
NCI-H522 lung
  TGI: > 100 µM
MOLT-4 leukemia
  TGI: > 100 µM
786-0 renal
  TGI: > 100 µM
TK-10 renal
  TGI: > 100 µM
HT29 colon
  TGI: > 100 µM
SN12C renal
  TGI: > 100 µM
M19-MEL melanoma
  TGI: > 100 µM
LXFL 529 NSCLC
  TGI: > 100 µM
HOP-18 NSCLC
  TGI: > 100 µM
DLD-1 colon
  TGI: > 100 µM
SK-MEL-28 melanoma
  TGI: > 100 µM
HCT-116 colon
  TGI: > 100 µM
DMS 114 small cell lung
  TGI: > 100 µM
SR leukemia
  TGI: > 100 µM
RXF 393 renal
  TGI: > 100 µM
SW-620 colon
  TGI: > 100 µM
HOP-92 NSCLC
  TGI: > 100 µM
UACC-257 melanoma
  TGI: > 100 µM
SNB-78 CNS
  TGI: > 100 µM
NCI-H460 lung
  TGI: > 100 µM
RPMI-8226 leukemia
  TGI: > 100 µM

## CCN(C(=N)C#N)c1ccccc1
SF-295 CNS
  TGI: > 100 µM
OVCAR-4 ovarian
  TGI: > 100 µM
IGROV1 ovarian
  TGI: > 100 µM
MALME-3M melanoma
  TGI: > 100 µM
UACC-62 melanoma
  TGI: > 100 µM
SF-539 CNS
  TGI: 27.6 µM
SK-MEL-2 melanoma
  TGI: > 100 µM
RXF-631 renal
  TGI: > 100 µM
OVCAR-5 ovarian
  TGI: > 100 µM
DMS 273 small cell lung
  TGI: > 58.3 µM
EKVX NSCLC
  TGI: > 100 µM
M14 melanoma
  TGI: > 100 µM
UO-31 renal
  TGI: > 100 µM
HCT-15 colon
  TGI: > 69.2 µM
SNB-75 CNS
  TGI: > 100 µM
KM20L2 colon
  TGI: > 100 µM
K-562 leukemia
  TGI: > 100 µM
A498 renal
  TGI: > 100 µM
NCI-H23 lung
  TGI: > 100 µM
NCI-H226 lung
  TGI: > 100 µM
ACHN renal
  TGI: > 100 µM
COLO 205 colon
  TGI: > 100 µM
HL-60(TB) leukemia
  TGI: > 70.2 µM
SK-MEL-5 melanoma
  TGI: > 100 µM
HOP-62 NSCLC
  TGI: > 100 µM
OVCAR-3 ovarian
  TGI: > 100 µM
KM12 colon
  TGI: > 100 µM
CAKI-1 renal
  TGI: > 100 µM
U251 CNS
  TGI: > 100 µM
A549 NSCLC
  TGI: > 100 µM
SNB-19 CNS
  TGI: > 100 µM
HCC-2998 colon
  TGI: > 100 µM
CCRF-CEM leukemia
  TGI: > 85.1 µM
NCI-H522 lung
  TGI: > 100 µM
MOLT-4 leukemia
  TGI: > 100 µM
786-0 renal
  TGI: > 60.3 µM
TK-10 renal
  TGI: > 100 µM
HT29 colon
  TGI: > 100 µM
SN12C renal
  TGI: > 100 µM
SK-OV-3 ovarian
  TGI: > 100 µM
SF-268 CNS
  TGI: > 100 µM
M19-MEL melanoma
  TGI: > 95.4 µM
LXFL 529 NSCLC
  TGI: > 100 µM
HOP-18 NSCLC
  TGI: > 100 µM
DLD-1 colon
  TGI: > 65.6 µM
LOX IMVI melanoma
  TGI: > 100 µM
SK-MEL-28 melanoma
  TGI: > 100 µM
HCT-116 colon
  TGI: > 100 µM
DMS 114 small cell lung
  TGI: > 88.2 µM
SR leukemia
  TGI: > 100 µM
RXF 393 renal
  TGI: > 100 µM
SW-620 colon
  TGI: > 49.8 µM
HOP-92 NSCLC
  TGI: > 100 µM
OVCAR-8 ovarian
  TGI: > 100 µM
UACC-257 melanoma
  TGI: > 100 µM
NCI-H460 lung
  TGI: > 100 µM
RPMI-8226 leukemia
  TGI: > 100 µM
